The test system of data set [1] is RAW264.7. Description: Anti-inflammatory activity in mouse RAW264.7 cells assessed as inhibition of LPS-stimulated NO production at 15 uM preincubated with LPS and measured after 20 hrs by Griess reagent-based assay relative to control. It counts as functional.
Data set [2] relates to RAW264.7. Description: Cytotoxicity against mouse RAW264.7 cells at 6.25 to 100 uM measured after 24 hrs by MTT assay. It counts as cell-based. The following applies: raw264.7, 24 h.
Data set [3] has as its system RAW264.7. In words: Anti-inflammatory activity in mouse RAW264.7 cells assessed as inhibition of LPS-stimulated NO production preincubated with LPS and measured after 20 hrs by Griess reagent-based assay. It counts as functional, cell-based. In general terms: Nitrite, measured by Griess reagent, commonly stands in for NO production.
The subject of data set [4] is RAW264.7. In words: Antiinflammatory activity in mouse RAW264.7 cells assessed as decrease in LPS-induced IL-6 mRNA expression after 6 to 24 hrs by FQ-PCR analysis. It counts as functional, cell-based.
The test system of data set [5] is RAW264.7. In words: Antiinflammatory activity in mouse RAW264.7 cells assessed as effect on LPS-induced TNF-alpha mRNA expression after 12 to 24 hrs by FQ-PCR analysis. The format is functional, cell-based.
For data set [6], the system named is RAW264.7. Description: Antiinflammatory activity in mouse RAW264.7 cells assessed as decrease in LPS-induced IL-6 secretion after 24 hrs by ELISA. It counts as functional, cell-based. A general note: In an ELISA, binding on a coated surface is turned into a signal by an enzyme label.
The target of data set [7] is Transcription factor p65 (Mus musculus) (UniProt Q04207). Description: Inhibition of LPS-induced NF-kappaB p65 translocation in mouse RAW264.7 cells at 3 to 12 uM incubated for 2 hrs by DAPI staining based immunofluorescence assay. It counts as cell-based.
The test system of data set [8] is RAW264.7. In words: Antiinflammatory activity in mouse RAW264.7 cells assessed as decrease in LPS-induced TNF-alpha secretion after 24 hrs by ELISA. It counts as functional, cell-based.

Active and inactive are the calls of the source. The rule behind the calls is not given here.

The inhibition is how much of the control response was suppressed. As a reminder, the IC50 is the concentration needed to halve the response being measured.

Chain of Transcription factor p65 (Mus musculus) (Q04207 whole entry): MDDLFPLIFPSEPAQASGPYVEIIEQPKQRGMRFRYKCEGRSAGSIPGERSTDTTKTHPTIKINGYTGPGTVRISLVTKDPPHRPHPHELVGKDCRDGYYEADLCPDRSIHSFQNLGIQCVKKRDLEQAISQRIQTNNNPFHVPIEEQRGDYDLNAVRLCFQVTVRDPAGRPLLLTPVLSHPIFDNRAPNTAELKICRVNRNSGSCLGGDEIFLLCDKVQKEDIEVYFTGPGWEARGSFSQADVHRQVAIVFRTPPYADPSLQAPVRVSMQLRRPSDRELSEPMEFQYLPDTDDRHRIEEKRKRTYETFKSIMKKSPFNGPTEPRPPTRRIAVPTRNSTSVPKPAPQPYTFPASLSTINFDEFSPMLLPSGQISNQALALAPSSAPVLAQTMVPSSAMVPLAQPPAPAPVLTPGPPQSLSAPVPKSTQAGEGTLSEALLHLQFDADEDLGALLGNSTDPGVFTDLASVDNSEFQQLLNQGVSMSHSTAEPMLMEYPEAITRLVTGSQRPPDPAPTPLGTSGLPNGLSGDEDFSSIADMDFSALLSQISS

For `C[C@@H]1C[C@H]2[C@@H]3CCC4=CC(=O)C=C[C@]4(C)[C@@]3(F)[C@@H](O)C[C@]2(C)[C@@]1(O)C(=O)CO` [DEXAMETHASONE], the inhibition at 15 µM in the data set on RAW264.7 [1] is 34.2%.

For the compound `CC(=O)O[C@@H]1[C@@H](C)/C=C/C(C)(C)C(=O)C[C@@H](O)/C(C)=C/[C@H]2[C@@H](OC(=O)c3ccccc3)[C@H](C)C[C@]12OC(C)=O`, in the data set with RAW264.7 [2], the Activity entry is listed as “Non-Toxic”. Moreover, the inhibition entry in the data set on RAW264.7 [3] was “inactive”.

For `CC(=O)O[C@@H]1[C@H](C)/C=C/C(C)(C)C(=O)C[C@@H](O)/C(C)=C/[C@H]2[C@@H](OC(=O)c3ccccc3)[C@H](C)C[C@]12OC(C)=O`, the Activity entry in the data set with RAW264.7 [2] is on record as “Non-Toxic”. The inhibition result in the data set on RAW264.7 [3] was “inactive”.

With `CC(=O)O[C@@H]1[C@@H](C)/C=C/C(C)(C)C(=O)C[C@@H](OC(C)=O)/C(C)=C/[C@H]2[C@@H](OC(=O)c3ccccc3)[C@H](C)C[C@]12OC(C)=O`, the Activity result with RAW264.7 [2] is reported as “Non-Toxic”. Besides, in the data set on RAW264.7 [3], the inhibition entry is “inactive”.

Take `COc1cc(/C=C/c2ccccc2)c(C(=O)O)c(O)c1CC=C(C)C`: in the data set on RAW264.7 [1], the inhibition at 15 µM was 30.2%.

Take `CC(=O)O[C@]12C[C@@H](C)[C@H](OC(=O)c3ccccc3)[C@@H]1/C=C(\C)[C@H](O)CC(=O)C(C)(C)C/C=C(\C)C2=O`: in the data set with RAW264.7 [2], the Activity result was “Non-Toxic”. The inhibition entry in the data set on RAW264.7 [3] was “inactive”.

Regarding `CC(=O)O[C@]12C[C@H](C)[C@H](OC(=O)c3ccccc3)[C@@H]1/C=C(\C)[C@H](OC(=O)c1ccccc1)CC(=O)C(C)(C)/C=C/[C@@H](C)C2=O`, in the data set on RAW264.7 [2], the Activity result was “Non-Toxic”. For the same compound, in the data set on RAW264.7 [3], the inhibition entry is “inactive”.

Regarding `CC(=O)O[C@@H]1[C@@H](C)/C=C/C(C)(C)C(=O)C[C@@H](OC(C)=O)/C(C)=C/[C@H]2[C@@H](OC(=O)c3ccccc3)[C@@H](C)C[C@]12OC(C)=O`, in the data set on RAW264.7 [2], the Activity result is “Non-Toxic”. Besides, in the data set with RAW264.7 [3], the inhibition result is “inactive”.

In the case of `CC(=O)O[C@@H]1[C@@H](C)[C@H](C=C(C)C)C(=O)C[C@@H](OC(C)=O)/C(C)=C/[C@H]2[C@@H](OC(=O)c3ccccc3)[C@H](C)C[C@]12OC(C)=O`, the Activity result in the data set on RAW264.7 [4] was “Dose-dependent effect”; with RAW264.7 [2], “Non-Toxic”; in the data set with RAW264.7 [6], “Dose-dependent effect”; in the data set with RAW264.7 [8] it was “Dose-dependent effect”. Besides, in the data set with RAW264.7 [5], the result was inactive. Moreover, in the data set with RAW264.7 [3], the IC50 is 7.4 µM. The inhibition result in data set [7] is “Active”.

Take `CC(=O)O[C@]12C[C@@H](C)[C@H](OC(=O)c3ccccc3)[C@@H]1/C=C(\C)[C@H](OC(=O)c1ccccc1)CC(=O)C(C)(C)/C=C/[C@@H](C)C2=O`: in the data set with RAW264.7 [2], the Activity result is “Non-Toxic”. The inhibition entry with RAW264.7 [3] is “inactive”.

With `CC(=O)O[C@@H]1[C@H](C)/C=C/C(C)(C)C(=O)CC/C(C)=C/[C@H]2[C@@H](OC(=O)c3ccccc3)[C@H](C)C[C@]12OC(C)=O`, the Activity entry with RAW264.7 [2] is listed as “Non-Toxic”. In the data set on RAW264.7 [3], the inhibition result was “inactive”.

Turning to `CC(=O)O[C@]12C[C@@H](C)[C@H](OC(=O)c3ccccc3)[C@@H]1/C=C(\C)C(=O)CC(=O)C(C)(C)C/C=C(\C)C2=O`, in the data set with RAW264.7 [2], the Activity result was “Non-Toxic”. Further, the inhibition entry with RAW264.7 [3] is “inactive”.

Regarding `CC(=O)O[C@@H]1[C@H](C)/C=C/C(C)(C)C(=O)C[C@@H](OC(=O)c2ccccc2)/C(C)=C/[C@H]2[C@@H](OC(=O)c3ccccc3)[C@H](C)C[C@]12OC(C)=O` [EUPHOSCOPIN C], the Activity entry with RAW264.7 [2] is on record as “Non-Toxic”. The inhibition entry in the data set on RAW264.7 [3] was “inactive”.
